Reference: patent US20240190872A1, “FABI INHIBITORS FOR GRAM-NEGATIVE PATHOGENS” (THE BOARD OF TRUSTEES OF THE UNIVERSITY OF ILLINOIS, priority 2021, published 2024)
≈ marks a conversion by molar mass, not a printed value.

Columns and labels:
Type in all cases: cell-based
S. aureus ATCC 29213 = test: Antimicrobial susceptibility test (MIC), micro-dilution broth; details: for MIC S. aureus 29213: S. aureus ATCC 29213
From the text: (§1) Bacterial strains. S. aureus ATCC 29213, E. coli MG1655, E. coli BAA-2340, E. coli BAA-2469, E. coli BAA-2471, E. cloacae BAA-2341, E. cloacae BAA-2468, K. pneumoniae BAA-1705, K. pneumoniae BAA-2342, K. pneumoniae BAA-2470, K. pneumoniae BAA-2472, and K. pneumoniae BAA-2473 were obtained from ATCC. E. coli JW5503 and E. coli JW3596 were obtained from the KEIO Collection. E. cloacae ATCC 29893 was provided by W. van der Donk (UIUC). E. coli AR-0346, E. coli AR-0349, E. coli AR-0493, E. coli AR-0495, and K. pneumoniae AR-0347 were obtained from the CDC and FDA AR Isolate Bank. E. coli F20987, E. coli M66623, E. cloacae S28901.1, K. pneumoniae M14723, K. pneumoniae M67198, K. pneumoniae M67297, K. pneumoniae S20595, K. pneumoniae S47889, A. baumannii W41979, A. baumannii F19521, A. baumannii M13100, and A. baumannii WO22 were obtained from the University of Illinois Chicago Medical School. A. baumannii KB304, A. baumannii KB343, and A. baumannii KB357 were provided by J. Quale.
(§2) Antimicrobial susceptibility tests. Susceptibility testing was performed in biological triplicate, using the micro-dilution broth method as outlined by the Clinical and Laboratory Standards Institute. Bacteria were cultured with cation-adjusted Muller-Hinton broth (Sigma-Aldrich, Cat# 90922) in round-bottom 96-well plates (Corning, Cat# 3788). Human serum (pooled gender, 0.2 μm filtered) was purchased from BioIVT (Hicksville, NY).

E. coli ΔtolC (JW5503) = details: for MIC E. coli ΔtolC: efflux deficient E. coli ΔtolC
Description: (§3) The compounds synthesized, shown in Table 1, were evaluated against Gram-positive and Gram-negative reference strains (S. aureus 29213 and E. coli MG1655, respectively), as well as an efflux deficient E. coli strain (ΔtolC, JW5503).
as §1, §2

E. coli MG1655 = test: Antimicrobial susceptibility test (MIC); details: for % @ 32 (in brackets after MIC): E. coli MG1655, 32 μg/mL
From the text: as §1, §2

K. pneumoniae BAA 2472 = test: microbe, parasite or virus in culture; details: clinical isolate
Description: as §3, §1, §2

A. baumannii AR 0033 = test: microbe, parasite or virus in culture; details: clinical isolate
Description: as §2

A. baumannii AR 0273 = test: microbe, parasite or virus in culture; details: clinical isolate
Description: as §2

A. baumannii AR 0299 = test: microbe, parasite or virus in culture; details: clinical isolate
Description: as §2

A. baumannii AR 0313 = test: microbe, parasite or virus in culture; details: clinical isolate
Description: as §2

E. coli AR 0048 = test: microbe, parasite or virus in culture; details: clinical isolate
Description: as §2

E. coli AR 0085 = test: microbe, parasite or virus in culture; details: clinical isolate
Description: as §2

K. pneumoniae AR 0066 = test: microbe, parasite or virus in culture; details: clinical isolate
Description: as §2

K. pneumoniae AR 0113 = test: microbe, parasite or virus in culture; details: clinical isolate
Description: as §2

K. pneumoniae AR 0560 = test: microbe, parasite or virus in culture; details: clinical isolate
Description: as §2

Cc1c(CN(C)C(=O)/C=C/c2cnc3c(c2)CC(CN)C(=O)N3)oc2ccccc12.Cl (racemic)
MIC S. aureus 29213 (S. aureus ATCC 29213): 0.031 µg/mL | MIC E. coli ΔtolC (E. coli ΔtolC (JW5503)): 0.125 µg/mL | MIC E. coli MG1655 (E. coli MG1655): 8 µg/mL

Cc1c(CN(C)C(=O)/C=C/c2cnc3c(c2)CC(N)C(=O)N3)oc2cc(F)ccc12.Cl (centres unmarked)
MIC S. aureus 29213 (S. aureus ATCC 29213): 0.062 µg/mL | MIC E. coli ΔtolC (E. coli ΔtolC (JW5503)): 0.5 µg/mL | MIC E. coli MG1655 (E. coli MG1655): > 32 µg/mL | % @ 32 (in brackets after MIC) (E. coli MG1655): 65%

Cc1c(CN(C)C(=O)/C=C/c2ccc3c(c2)CCC(N)C(=O)N3)oc2ccccc12 (single isomer, unassigned) [Isomer 2]
MIC K. pneumoniae BAA 2472 (K. pneumoniae BAA 2472): 4 µg/mL (≈ 9.91 µM) | MIC A. baumannii AR 0033 (A. baumannii AR 0033): 2 µg/mL (≈ 4.96 µM) | MIC A. baumannii AR 0273 (A. baumannii AR 0273): 4 µg/mL (≈ 9.91 µM) | MIC A. baumannii AR 0299 (A. baumannii AR 0299): 2 µg/mL (≈ 4.96 µM) | MIC A. baumannii AR 0313 (A. baumannii AR 0313): 4 µg/mL (≈ 9.91 µM) | MIC E. coli AR 0048 (E. coli AR 0048): 4 µg/mL (≈ 9.91 µM) | MIC E. coli AR 0085 (E. coli AR 0085): 2 µg/mL (≈ 4.96 µM) | MIC K. pneumoniae AR 0066 (K. pneumoniae AR 0066): 4 µg/mL (≈ 9.91 µM) | MIC K. pneumoniae AR 0113 (K. pneumoniae AR 0113): 8 µg/mL (≈ 19.8 µM) | MIC K. pneumoniae AR 0560 (K. pneumoniae AR 0560): 4 µg/mL (≈ 9.91 µM)

Cc1c(CN(C)C(=O)/C=C/c2cnc3c(c2)CC(NCCN)C(=O)N3)oc2ccccc12.Cl (centres unmarked)
MIC S. aureus 29213 (S. aureus ATCC 29213): 0.5 µg/mL | % @ 0.25 (in brackets after MIC) (S. aureus ATCC 29213; S. aureus ATCC 29213, 0.25 μg/mL): 80% | % @ 0.5 (in brackets after MIC) (E. coli ΔtolC (JW5503); E. coli ΔTolC, 0.5 μg/mL): 50% | MIC E. coli ΔtolC (E. coli ΔtolC (JW5503)): 1 µg/mL | MIC E. coli MG1655 (E. coli MG1655): > 32 µg/mL | % @ 32 (in brackets after MIC) (E. coli MG1655): 35%

Cc1c(CN(C)C(=O)/C=C/c2cnc3c(c2)CCC(CN)C(=O)N3)oc2ccccc12 (centres unmarked)
MIC K. pneumoniae BAA 2472 (K. pneumoniae BAA 2472): 32 µg/mL (≈ 76.5 µM) | MIC A. baumannii AR 0033 (A. baumannii AR 0033): 16 µg/mL (≈ 38.2 µM) | MIC A. baumannii AR 0273 (A. baumannii AR 0273): 32 µg/mL (≈ 76.5 µM) | MIC A. baumannii AR 0299 (A. baumannii AR 0299): 32 µg/mL (≈ 76.5 µM) | MIC A. baumannii AR 0313 (A. baumannii AR 0313): 32 µg/mL (≈ 76.5 µM) | MIC E. coli AR 0048 (E. coli AR 0048): 16 µg/mL (≈ 38.2 µM) | MIC E. coli AR 0085 (E. coli AR 0085): 16 µg/mL (≈ 38.2 µM) | MIC K. pneumoniae AR 0066 (K. pneumoniae AR 0066): 32 µg/mL (≈ 76.5 µM) | MIC K. pneumoniae AR 0113 (K. pneumoniae AR 0113): 32 µg/mL (≈ 76.5 µM) | MIC K. pneumoniae AR 0560 (K. pneumoniae AR 0560): 16 µg/mL (≈ 38.2 µM)

Cc1c(CN(C)C(=O)/C=C/c2cnc3c(c2)CC(CCN)C(=O)N3)oc2ccccc12.Cl (racemic)
MIC S. aureus 29213 (S. aureus ATCC 29213): 0.016 µg/mL | MIC E. coli ΔtolC (E. coli ΔtolC (JW5503)): 0.062 µg/mL | MIC E. coli MG1655 (E. coli MG1655): 8 µg/mL

Cc1c(CN(C)C(=O)/C=C/c2cnc3c(c2)CC(NCCCN)C(=O)N3)oc2ccccc12.O=CO (centres unmarked)
MIC S. aureus 29213 (S. aureus ATCC 29213): 0.250 µg/mL | MIC E. coli ΔtolC (E. coli ΔtolC (JW5503)): 0.5 µg/mL | MIC E. coli MG1655 (E. coli MG1655): >32 µg/mL

NC1Cc2cc(C=CC(=O)N3CC4C=C(c5ccccc5)CC4C3)cnc2NC1=O (mixture of isomers)
MIC S. aureus 29213 (S. aureus ATCC 29213): 0.062 µg/mL | MIC E. coli ΔtolC (E. coli ΔtolC (JW5503)): 0.062 µg/mL | MIC E. coli MG1655 (E. coli MG1655): 16 µg/mL

Cc1c(CN(C)C(=O)/C=C/c2cnc3c(c2)CC2(CNC2)C(=O)N3)oc2ccccc12 [drawing 106]
MIC K. pneumoniae BAA 2472 (K. pneumoniae BAA 2472): 8 µg/mL (≈ 19.2 µM) | MIC A. baumannii AR 0033 (A. baumannii AR 0033): 8 µg/mL (≈ 19.2 µM) | MIC A. baumannii AR 0273 (A. baumannii AR 0273): 16 µg/mL (≈ 38.4 µM) | MIC A. baumannii AR 0299 (A. baumannii AR 0299): 16 µg/mL (≈ 38.4 µM) | MIC A. baumannii AR 0313 (A. baumannii AR 0313): 16 µg/mL (≈ 38.4 µM) | MIC E. coli AR 0048 (E. coli AR 0048): 8 µg/mL (≈ 19.2 µM) | MIC E. coli AR 0085 (E. coli AR 0085): 4 µg/mL (≈ 9.6 µM) | MIC K. pneumoniae AR 0066 (K. pneumoniae AR 0066): 8 µg/mL (≈ 19.2 µM) | MIC K. pneumoniae AR 0113 (K. pneumoniae AR 0113): 16 µg/mL (≈ 38.4 µM) | MIC K. pneumoniae AR 0560 (K. pneumoniae AR 0560): 16 µg/mL (≈ 38.4 µM)

Cc1c(CN(C)C(=O)/C=C/c2cnc3c(c2)CC(N)C(=O)N3)oc2c(F)cccc12.Cl (centres unmarked)
MIC S. aureus 29213 (S. aureus ATCC 29213): 0.016 µg/mL | MIC E. coli ΔtolC (E. coli ΔtolC (JW5503)): 0.062 µg/mL | MIC E. coli MG1655 (E. coli MG1655): 8 µg/mL | % @ 4 (in brackets after MIC) (E. coli MG1655; E. coli MG1655, 4 μg/mL): 50-80%

Cc1c(CN(C)C(=O)/C=C/c2cnc3c(c2)CC(N)C(=O)N3)oc2ccccc12.Cl (racemic) [reference compound]
MIC S. aureus 29213 (S. aureus ATCC 29213): 0.03125 µg/mL | MIC E. coli ΔtolC (E. coli ΔtolC (JW5503)): 0.062 µg/mL | MIC E. coli MG1655 (E. coli MG1655): 4 µg/mL

Cc1c(CN(C)C(=O)/C=C/c2cnc3c(c2)CCC(N)C(=O)N3)oc2ccccc12 (racemic) [drawing 87]
MIC S. aureus 29213 (S. aureus ATCC 29213): 0.016 µg/mL (≈ 0.0396 µM) | MIC E. coli ΔtolC (E. coli ΔtolC (JW5503)): 0.031 µg/mL (≈ 0.0766 µM) | MIC E. coli MG1655 (E. coli MG1655): 4 µg/mL (≈ 9.89 µM)

Cc1c(CN(C)C(=O)/C=C/c2cnc3c(c2)CC(N)C(=O)N3)oc2cccc(F)c12.Cl (centres unmarked)
MIC S. aureus 29213 (S. aureus ATCC 29213): 0.031 µg/mL | MIC E. coli ΔtolC (E. coli ΔtolC (JW5503)): 0.125 µg/mL | MIC E. coli MG1655 (E. coli MG1655): 8 µg/mL
